In patent US20040214799A1, “Cancerous metastasis inhibitors containing carbacyclic phosphatidic acid derivatives” (priority 2001, published 2004):
Where “and” joins values, the source holds several entries; their conditions need not be identical. Equal entries are not always repeated.

Tested on: Mouse malignant melanoma B16-F0
Assay: B16 melanoma hematogenous lung metastasis model; as to Metastatic nodules, Abdominal cavity Adipose tissue: key: −: Absent; +: Present; as to Metastatic nodules, Abdominal cavity Adrenal gland: key: −: Absent; +: Present; as to Metastatic nodules, Abdominal cavity Diaphragm: key: −: Absent; +: Present; as to Metastatic nodules, Abdominal cavity Kidney: key: −: Absent; +: Present; as to Metastatic nodules, Abdominal cavity Ovary: key: −: Absent; +: Present; as to Metastatic nodules, Abdominal cavity Spleen: key: −: Absent; +: Present; as to Metastatic nodules, Thoracic cavity: key: −: Absent; +: Present; as to Metastatic nodules, Tissue around glandual clitoris: key: −: Absent; +: Present
Format: in vivo
Conditions: for invasion of lymphocytes into metastatic lesions observed in cases: animals with metastatic lesions; for Metastatic nodules, Abdominal cavity Adipose tissue / Metastatic nodules, Abdominal cavity Adrenal gland / Metastatic nodules, Abdominal cavity Diaphragm / Metastatic nodules, Abdominal cavity Kidney / Metastatic nodules, Abdominal cavity Ovary / Metastatic nodules, Abdominal cavity Spleen / Metastatic nodules, Thoracic cavity / Metastatic nodules, Tissue around glandual clitoris: autopsy day 14, individual animals; for Number of lung tumor nodules, Range (mininum-maximum) / Number of mice having lung tumor nodules: day 14, N 6; for Number of lung tumor nodules: day 14, mean ± S.D.; for Number of lung tumor nodules / Number of mice having metastatic lesions: N 6; for Number of mice having metastatic lesions / Findings: Invasion of lymphocytes into melanoma metastatic lesion: lung histopathology; for Findings: Invasion of lymphocytes into melanoma metastatic lesion: individual animals; for Number of metastatic lesions per section, Large size: major diameter 0.65 mm ≦ and <1.3 mm; for Number of metastatic lesions per section, Large size / Number of metastatic lesions per section, Small size / Number of metastatic lesions per section, Total: mean ± S.D.; for Number of metastatic lesions per section, Small size: major diameter <0.65 mm, left lobe and posterior lobe
Procedure: cPA-19 and cPA-20 were used as test substances. 0.1 w/v % BSA/PBS which was prepared by dissolving Albumin, Bovine [essentially Fatty Acid Free] (BSA, Lot No. 89H7604, Sigma chemical company) in Ca^2+ and Mg^2+ free PBS (pH 7.2), was used as a medium After preparation, the solution was sterilized by filtration using a filter (0.22 μm, Millipore). Preparation was performed when used. cPA-5 was used as a positive control substance.
A medium was added in a volume required for a test substance or a positive control substance. Dissolution was performed by ultrasonication, thereby preparing a 0.16 mg/mL solution. The 0.16 mg/mL solution containing a test substance was diluted with a medium, thereby preparing 0.08 and 0.02 mg/mL solutions. All mixtures were prepared when used.
Mice were purchased from CHARLES RIVER JAPAN. INC. The line employed herein was C57BL/6NCrj (sexuality: female). The number of animals kept in stock was 60, and the age of these animals when kept in stock was 4 weeks. […] The environmental conditions for the test system were as follows:
Mouse malignant melanoma B16-F0 was used as a tumor cell. The cell was purchased from Dainippon Pharmaceutical Co., Ltd.
Dulbecco's Modified Eagle's Media containing 10% feral bovine serum and kanamycin were used for culture. […] A medium was added to stop the action of trypsin while pipetting, thereby preparing a cell suspension. The suspension was diluted by one-tenth with a medium for culturing, followed by subculturing until it reached a volume sufficient for grafting.
A cell suspension was prepared by the same technique as the subculture method. Specifically, the cells were washed with a Ca^2+ and Mg^2+ free phosphate buffer [PBS(−)], and then harvested. The harvested cells were suspended in a 10 mL of PBS(−), thereby preparing a cell suspension. The number of cells in the cell suspension was measured to obtain the total cell number. 50 μL of the cell suspension, 100 μL of 0.4% trypan blue liquid and 100 μL of PBS(−) were mixed, and then viable count was measured. The survival rate of the cells was calculated from the viable count and total cell number.
Based on the body weight on the day of the administration of the test substance, mice were grouped into 8 test groups according to the stratified continuous randomization method as shown in Table 2 below.
The mixture was administered via the caudal vein. The number of grafted cells was 5×10^5 cells/body. The dose of the test substance was 0.001, 0.004 or 0.008 mg/body, and the dose of the positive control substance was 0.008 mg/body.
On day 14 after the administration of the test substance, blood was collected from the posterior portion of the abdominal vena cava under isoflurane anesthesia. After the mice were sacrificed by blood-letting, the presence or absence of intrapleural and intraperitoneal metastatic nodules was confirmed. Lungs were extracted, and then fixed with a 10% neutral buffered formalin solution. The number of nodules resulting from lung metastasis was measured under a stereoscopic microscope (magnification: 10 times).
After the measurement of the number of nodules resulting from lung metastasis, samples were paraffin-embedded, and then thin sections were prepared. Hematoxylin eosinic-stained samples were prepared from these sections. The number of metastatic lesions in the certain portions of the left lobe and the posterior lobe was measured, and then the lesions were sorted by size. On the basis of the diameter (0.65 mm) of an object lens (×40), metastatic lesions with major diameters of less than 0.65 mm were classified as having a small size, and those with major diameters of between 0.65 mm or more and less than 1.30 mm were classified as having a large size. Furthermore, the degree of invasion of lymphocytes into metastatic lesions was confirmed qualitatively.
The representative value of each test group was denoted as mean±standard deviation (mean±S.D.). Differences in mean values were examined as follows.

[1] = 0.001 mg/body i.v., autopsy, 6 mice
[2] = 0.004 mg/body i.v., autopsy, 6 mice
[3] = 0.008 mg/body i.v., autopsy, 6 mice

In the case of carba-Ole-cPA [cPA-19], the “invasion of lymphocytes into metastatic lesions observed in cases” value (0.001 mg/body i.v.) is reported as 1 out of 6, the “Metastatic nodules, Abdominal cavity Adipose tissue” value (0.001 mg/body i.v.) is reported as “+ and − (5×)” and the “Metastatic nodules, Abdominal cavity Adrenal gland” value (0.001 mg/body i.v.) is reported as “+ and − (5×)”. For the same substance, the “Metastatic nodules, Abdominal cavity Diaphragm” value (0.001 mg/body i.v.) was “−”, the “Metastatic nodules, Abdominal cavity Kidney” value (0.001 mg/body i.v.) was “+ (2×) and − (4×)” and the “Metastatic nodules, Abdominal cavity Ovary” value (0.001 mg/body i.v.) was “+ (2×) and − (4×)”. The “Metastatic nodules, Abdominal cavity Spleen” value (0.001 mg/body i.v.) was “− (5×) and +”, the “Metastatic nodules, Thoracic cavity” value (0.001 mg/body i.v.) was “− (5×) and +” and the “Metastatic nodules, Tissue around glandual clitoris” value (0.001 mg/body i.v.) was “−”. For the same substance, the “cases with metastatic nodules in adipose tissue” value [1] was 1 case, the “cases with metastatic nodules in the adrenal gland” value [1] was 1 case and the “cases with metastatic nodules in the kidney” value [1] was 2 cases. The “cases with metastatic nodules in the ovary” value [1] was 2 cases, the “cases with metastatic nodules in the spleen” value (shortened to “cases … in the spleen”) [1] was 1 case and the “cases with metastatic nodules in the thoracic cavity” value [1] was 1 case. For the same substance, the “Number of lung tumor nodules, Range (mininum-maximum)” value (shortened to “Number of lung tumor nodules, Range”) (0.001 mg/body i.v.) was 37-66, the “Number of mice having lung tumor nodules” value (0.001 mg/body i.v.) was 6 and the “Number of lung tumor nodules” value (0.001 mg/body i.v.) was 54 ± 12. For the same substance, the “Number of mice having metastatic lesions” value (0.001 mg/body i.v.) was 6, the “Findings: Invasion of lymphocytes into melanoma metastatic lesion” value (0.001 mg/body i.v.) was “− (5×) and +” and the “Number of metastatic lesions per section, Large size” value (“Number … per section, Large size” for short) (0.001 mg/body i.v.) was 0.7 ± 0.8. For the same substance, the “Number of metastatic lesions per section, Small size” value (“Number … per section, Small size” for short) (0.001 mg/body i.v.) was 3.0 ± 1.3, the “Number of metastatic lesions per section, Total” value (“Number … per section, Total” for short) (0.001 mg/body i.v.) was 3.7 ± 1.8 and the “number of metastatic nodules of B16-F0 in the lungs versus medium group (in words)” value (0.004 mg/body i.v.) was “significant decrease in the number of metastatic nodules”. The “invasion of lymphocytes into metastatic lesions observed in cases” value (0.004 mg/body i.v.) was “no invasions were observed in 2 cases”, the “Metastatic nodules, Abdominal cavity Adipose tissue” value (0.004 mg/body i.v.) was “− (5×) and +” and the “Metastatic nodules, Abdominal cavity Adrenal gland” value (0.004 mg/body i.v.) was “− (5×) and +”. The “Metastatic nodules, Abdominal cavity Diaphragm” value (0.004 mg/body i.v.) was “−”, the “Metastatic nodules, Abdominal cavity Kidney” value (0.004 mg/body i.v.) was “−” and the “Metastatic nodules, Abdominal cavity Ovary” value (0.004 mg/body i.v.) was “−”. For the same substance, the “Metastatic nodules, Abdominal cavity Spleen” value (0.004 mg/body i.v.) was “+ and − (5×)”, the “Metastatic nodules, Thoracic cavity” value (0.004 mg/body i.v.) was “−” and the “Metastatic nodules, Tissue around glandual clitoris” value (0.004 mg/body i.v.) was “−”. The “cases with metastatic nodules in adipose tissue” value [2] was 1 case, the “cases with metastatic nodules in the adrenal gland” value [2] was 1 case and the “cases … in the spleen” value [2] was 1 case. For the same substance, the “metastatic nodules in the thoracic cavity” value [2] was “no metastatic nodules were observed”, the “Number of lung tumor nodules, Range” value (0.004 mg/body i.v.) was 2-6 and the “Number of mice having lung tumor nodules” value (0.004 mg/body i.v.) was 6. For the same substance, the “Number of lung tumor nodules” value (0.004 mg/body i.v.) was 4 ± 2, the “Number of mice having metastatic lesions” value (0.004 mg/body i.v.) was 2 & and the “Findings: Invasion of lymphocytes into melanoma metastatic lesion” value (0.004 mg/body i.v.) was “−”. For the same substance, the “Number … per section, Large size” value (0.004 mg/body i.v.) was 0 ± 0!!, the “Number … per section, Small size” value (0.004 mg/body i.v.) was 0.3 ± 0.5 and the “Number … per section, Total” value (0.004 mg/body i.v.) was 0.3 ± 0.5!. For the same substance, the “metastasis / number of metastatic nodules in the lungs versus medium group (in words)” value (0.008 mg/body i.v.) was “almost completely suppressed metastasis”, the “Metastatic nodules, Abdominal cavity Adipose tissue” value (0.008 mg/body i.v.) was “−” and the “Metastatic nodules, Abdominal cavity Adrenal gland” value (0.008 mg/body i.v.) was “−”. The “Metastatic nodules, Abdominal cavity Diaphragm” value (0.008 mg/body i.v.) was “−”, the “Metastatic nodules, Abdominal cavity Kidney” value (0.008 mg/body i.v.) was “−” and the “Metastatic nodules, Abdominal cavity Ovary” value (0.008 mg/body i.v.) was “−”. For the same substance, the “Metastatic nodules, Abdominal cavity Spleen” value (0.008 mg/body i.v.) was “− (5×) and +”, the “Metastatic nodules, Thoracic cavity” value (0.008 mg/body i.v.) was “−” and the “Metastatic nodules, Tissue around glandual clitoris” value (0.008 mg/body i.v.) was “−”. The “cases … in the spleen” value [3] was 1 case, the “metastatic nodules in the thoracic cavity” value [3] was “no metastatic nodules were observed” and the “Number of lung tumor nodules, Range” value (0.008 mg/body i.v.) was 0. For the same substance, the “Number of mice having lung tumor nodules” value (0.008 mg/body i.v.) was 0 &&, the “Number of lung tumor nodules” value (0.008 mg/body i.v.) was 0 ± 0 and the “Number of mice having metastatic lesions” value (0.008 mg/body i.v.) was 0 &&. For the same substance, the “Number … per section, Large size” value (0.008 mg/body i.v.) was 0 ± 0!!, the “Number … per section, Small size” value (0.008 mg/body i.v.) was 0 ± 0! and the “Number … per section, Total” value (0.008 mg/body i.v.) was 0 ± 0!!. For the same substance, the “number of mice having intrapleural or intraperitoneal metastatic nodules, dose dependence (in words)” value (0.001, 0.004 and 0.008 mg/body i.v.) was “decreased as the dose increased” and the “action of suppressing the lung metastasis of B16-F0 compared with cPA-5” value (0.004 and 0.008 mg/body i.v.) was “stronger than that of cPA-5”.
